In US20230152325A1, “Active Alpha-5-Beta-1 Integrin As A Biomarker For Enhancing Tumor Treatment Efficacy” (Institute For Cancer Research d/b/a The Research Institute …, priority 2016, published 2023):

Key:
[1] = system: naïve pancreatic fibroblasts cultured within D-ECM; experiment: ECM prompted myofibroblastic maintenance (α-SMA / F-actin immunofluorescence), PDAC model; assay type: cell-based, human; conditions: PDAC; naïve fibroblasts plated in D-ECM in presence of the agent
Experimental: (§1) ECM prompted myofibroblastic maintenance. Human naïve or assorted murine fibroblasts were incubated for 45 minutes prior to overnight culturing within assorted ECMs, prepared as above, in the presence or absence of 50 μg/ml SNAKA51, 60 μg/m ALULA, 250 μg/m mAb16, or BMAS diluted as instructed by the manufacturer (Millipore, Temecula, Calif.), IgG control, DMSO or small molecule inhibitors FAK (PF573,228) and SRC family kinases (PP2). ECM-induced phenotypes were assessed via RT-qPCR, Western Blot or immunofluorescence.
(§2) Naïve/innate PDAC and RCC patient harvested fibroblasts were cultured overnight within normal (N-ECM) vs. desmoplastic (D-ECM or DECMs that were produced in the presence or absence of TGFβ1-receptor inhibition (D+TGFβi) or vehicle control (D+DMSO). Alternatively, naïve cells cultured within D-ECMs were treated with either TGFβ1-receptor inhibitor (TGFβ-i), vehicle (DMSO), functional blocking antibodies anti-αvβ5 integrin (alula, αvβ5-i), anti-α5β1 integrin (mAb16, α5β1-i), combinations of both functional blocking antibodies (β5-i+α5-i), functional stabilizing anti α5β1 integrin (SNAKA51; α5β1-act) or non-immunized isotypic antibodies (IgG). All samples were subjected to indirect immunofluorescent labeling of desmoplastic marker α-SMA and counterstained with fluorescently labeled phalloidin to detect actin stress fibers (F-actin) and determine the co-localization ratio. Monochromatic “heat map” images (see, FIG. 2A) represent α-SMA intensity values. A 255 tones intensity scale bar is shown to the right. A summary of all measured values is graphed in FIG. 2B. Additional monochromatic images indicative of double labeled staining for α-SMA and F-actin are in FIG. 2C while levels of total α-SMA localized at corresponding stress fibers are plotted in FIG. 2D. Untreated D-ECM conditions were included in all experiments summarized in this figure and serve as normalization (1 arbitrary unit; a.u.) controls. Matching values including statistical significances are listed in accompanying Table 1. All scale bars represent 50 μm. TGFβ activity was needed to maintain functional D-ECM production but was dispensable when testing D-ECM induced responses, while the later were obstructed by αvβ5 integrin inhibition or active α5β1 integrin stabilization.

[2] = system: naïve renal fibroblasts cultured within D-ECM; experiment: ECM prompted myofibroblastic maintenance (α-SMA / F-actin immunofluorescence), RCC model; assay type: cell-based, human; conditions: RCC; naïve fibroblasts plated in D-ECM in presence of the agent
Experimental: as §1, §2

[3] = system: murine fibroblasts cultured in mD-ECM; experiment: mD-ECM induced myofibroblastic activation of murine fibroblasts (stress fiber α-SMA); assay type: cell-based; conditions: wild type murine fibroblasts in mD-ECM (80% untreated)
Experimental: as §1
FIGS. 3A through 3H show FAK independent α5β1 integrin activity negatively regulates D-ECM-induced desmoplastic activation. […]

## CS(=O)(=O)c1cccc(CNc2nc(Nc3ccc4c(c3)CCC(=O)N4)ncc2C(F)(F)F)c1 [PF573,228]
[1]
  α-SMA expression levels relative to untreated conditions: 17%
  α-SMA stress fiber localization levels: 23.5%
[2]
  α-SMA expression levels relative to untreated conditions: 70%
  α-SMA stress fiber localization levels: 25%
[3]
  cells undergoing myofibroblastic activation: 32%
